Reference: patent US10274488B2, “Glycan arrays on PTFE-like aluminum coated glass slides and related methods” (Academia Sinica, priority 2008, dated 2019)

Experiments:
[1] = system: exoglucanase L3; assay: Enzymatic hydrolysis on the PTFE-like ACG surface with exoglucanase L3, MS-TOF assay; type: biochemical, Clostridium thermocellum; conditions: substrate immobilized on the PTFE-like ACG surface, 24 hours of incubation
Procedure: For each carbohydrate, a specific enzyme was added: (a) is the control run without enzymes, (b) is exoglucanase L3, and (c) is endoglucanase 44A. […]
For comparison and as illustrated according to implementations shown in FIG. 23, substrate 8, 9, and 10 were immobilized on the PTFE-like ACG surface and carried out the cellulase hydrolysis on the surface directly, after the same washing procedures, these slides were subjected to MS-TOF assay. […] The endoglucanase 44A can't accept compound 8 or 9 as a substrate. […] From the above results, the cellotetraose substrate 10 was the best carbohydrate to create array on the PTFE-like ACG surface for the experiments conducted. By using this array, the activity and specificity of unknown cellulase may be examined.
Cellulase was prepared (5 U/mL in 25 mM pH 5.05 NaOAc buffer solution). Substrate was also dissolved in NaOAc buffer solution (25 mM, pH 5.05) to give 0.5 mM substrate solution. Add 50 μL cellulase solution to 50 μL substrate solution onto the glass slide which was loaded in FAST® Frame multi-slide plate to have a 2.5 U/mL cellulase solution with 0.25 mM substrate. […] Put the slide in dry box to remove the water, and then use high vacuum to remove trace water. 100 uL water was used to rinse each well of the FAST® Frame multi-slide plate to solve and remove the salt of the buffer solution. Remove any residual water on the plate by high vacuum and then analyzed the slide by MALDI-TOF Ultra-Flex II.
The genomic DNA of Sulfolobus solfataricus (ATCC 35092) and Clostridium thermocellum (ATCC 27405) were obtained from the ATCC biological resource center. The Sso7d (NCBI accession number: AAK42090) gene fragment was amplified directly from the Sulfolobus solfataricus genome by polymerase chain reaction (PCR) with forward 5′ […] 3′ (SEQ ID NO: 1) and reverse 5′ […] 3′ (SEQ ID NO: 2) primers. […]

[2] = system: cellulase from A. niger; assay: Enzymatic hydrolysis in solution with cellulase from A. niger, MS-TOF readout; type: biochemical, Aspergillus niger; conditions: reaction in solution
Procedure: (§1) Enzymatic hydrolysis of the immobilized poly-fluorinated cellobiose 8 (see FIG. 14) was first conducted in situ on the phosphonic acid slide surface. Three commercially available cellulases, Aspergillus niger (A. niger), Trichoderma reesei (T. reesei), and Trichoderma viride (T. viride) were prepared separately at 5 U/mL in a sodium acetate (25 mM) buffer solution (pH 5) and loaded onto the functionalized slide which has been divided into 16 wells using Fast Frame reaction chambers. For comparison, an aliquot of enzyme solution (100 μL) was added to the solution of fluorinated cellobiose (100 μL of 0.5 mM) in eppendorfs to carry out the enzymatic hydrolysis reactions in solution. After the reaction, it was transferred to the empty wells of the same slide. Each well was rinsed separately three times with de-ionized water and the slide was dried again under high vacuum before subjecting to MS-TOF analysis.
(§2) Under MS-TOF analysis, the clean background baseline allowed calculation of the percentage of hydrolyzed components for each sample. As shown in the MS-TOF results in FIG. 20, percentages of hydrolyzed products are calculated from the peak intensities of each spectrum. According to implementations of experimental data shown in FIG. 20, MS-TOF data of enzymatic hydrolysis of poly-fluorinated cellobiose in solution in FIG. 20A and immobilized on PTFE-like ACG slide in FIG. 20B. The control are the same experimental conditions run without enzymes in (a); (b), (c), and (d) are experimental conditions with the cellulase proteins from A. niger (b), T. reesei (c), and T. viride (d).
(§3) Cellulase was prepared (5 U/mL in 25 mM pH 5.05 NaOAc buffer solution). Substrate was also dissolved in NaOAc buffer solution (25 mM, pH 5.05) to give 0.5 mM substrate solution. Add 100 uL cellulase solution to 100 uL substrate solution in eppendorf to have a 2.5 U/mL cellulase solution with 0.25 mM substrate. This solution was incubated in 37° C. for 18 hours. Add 100 μL incubated solution onto the slide loaded in FAST® Frame. Put the slide in dry box to remove the water, and then use high vacuum to remove trace water. 100 μL water was used to rinse each well of the FAST® Frame multi-slide plate to solve and remove the salt of the buffer solution. Remove any residual water on the plate by high vacuum and then analyzed the slide by MALDI-TOF Ultra-Flex II.

[3] = system: cellulase from T. viride; assay: Enzymatic hydrolysis in solution with cellulase from T. viride, MS-TOF readout; type: biochemical, Trichoderma viride; conditions: reaction in solution, pH 5
Procedure: as §1, §2, §3

O=C(NCCCCCO[C@@H]1O[C@H](CO)[C@@H](O[C@@H]2O[C@H](CO)[C@@H](O)[C@H](O)[C@H]2O)[C@H](O)[C@H]1O)OCCCC(F)(F)C(F)(F)C(F)(F)C(F)(F)C(F)(F)C(F)(F)C(F)(F)C(F)(F)F [Compound 8, [(4,4,5,5,6,6,7,7,8,8,9,9,10,10,11,11,12,12,12-nonadecafluorododecoxycarbonyl-amino)pentyl] ß-D-cellobioside]
Cleavage of the substrate by exoglucanase L3 (in words) [1]: only cleaved a fraction
Biose (un-hydrolyzed cellobiose), percentage of hydrolyzed pattern ([2]; A. niger cellulase, pH 5): 64%
F-tail, percentage of hydrolyzed pattern ([2]; A. niger cellulase, pH 5): 0/0%
Glucose, percentage of hydrolyzed pattern ([2]; A. niger cellulase, pH 5): 18%
Triose, percentage of hydrolyzed pattern ([2]; A. niger cellulase, pH 5): 18%
Triose, percentage of hydrolyzed pattern ([2]; A. niger cellulase, pH 5, listed as cellobiose): 8%
Hydrolysis of the substrate by the enzyme from A. niger, one glucose unit at a time (in words) [2]: very slow reaction rate
Biose (un-hydrolyzed cellobiose), percentage of hydrolyzed pattern [3]: 3%
F-tail, percentage of hydrolyzed pattern [3]: 38%
Glucose, percentage of hydrolyzed pattern [3]: 58%
Triose, percentage of hydrolyzed pattern [3]: 0/0%

O=C(NCCCCCO[C@@H]1O[C@H](CO)[C@@H](O[C@@H]2O[C@H](CO)[C@@H](O[C@@H]3O[C@H](CO)[C@@H](O)[C@H](O)[C@H]3O)[C@H](O)[C@H]2O)[C@H](O)[C@H]1O)OCCCC(F)(F)C(F)(F)C(F)(F)C(F)(F)C(F)(F)C(F)(F)C(F)(F)C(F)(F)C(F)(F)F [Compound 9, [(4,4,5,5,6,6,7,7,8,8,9,9,10,10,11,11,12,12,12-nonadecafluorododecoxycarbonyl-amino)pentyl] ß-D-glucopyranosyl-(1→4)-ß-D-glucopyranosyl-(1→4)- -ß-D-glucopyranoside]
Cleavage of the substrate by exoglucanase L3 (in words) [1]: cleaved the cellobiose quickly
Hydrolysis of the substrate by the enzyme from A. niger, one glucose unit at a time (in words) [2]: very slow reaction rate
